Assay results taken from patent publication US20220280538A1, “METHODS OF TREATING P53 MUTANT CANCERS USING OGDH INHIBITORS” (MEMORIAL SLOAN KETTERING CANCER CENTER, priority 2019, published 2022).

Tests used:
[1] = system: KP^sh cells; experiment: Cell cycle arrest and senescence (BrdU, SA-β-gal) in KP^sh PDAC cells; assay type: cell-based, mouse; conditions: KP^sh cells on dox; 3 μM etoposide or 25 nM trametinib, 48 or 96 hours
Experimental: Cell Lines and Cell Culture Treatments. KP^sh-1-3 cells were derived from PDAC that developed in three separate Pdx1-Cre; LSL-KrasG12D; Col1a1-TRE-shp53-shRenilla; Rosa26-CAGs-LSL-rtTA-IRES-mKate2 mice generated by blastocyst injection and maintained on doxycycline (dox) chow (625 mg/kg, Harlan Laboratories) 5 days from birth until sacrifice. […] Guide strands for Col1a1 targeted tandem shRNAs were: p53, [sequence] (SEQ ID NO: 1) and Renilla, [sequence] (SEQ ID NO: 2). […] Tumors were diced with scissors and resulting pieces sequentially digested with 1 mg/ml collagenase V (Sigma) diluted in Hanks Buffered saline solution followed by 0.25% Trypsin. Digested suspensions were washed with complete DMEM (DMEM, 10% FBS (GIBCO), 1× Penicillin/Streptomycin) and propagated in complete DMEM on collagen-coated plates (PurCol, Advanced Biomatrix, 0.1 mg/ml). KP^sh cells were grown in complete DMEM supplemented with 1 μg/ml doxycycline.
Senescence Associated Beta-Galactosidase (SA-β-Gal) Assay. SA-β-gal activity was detected as described previously. […] At least 200 cells were analyzed from triplicate wells at all conditions. […]

[2] = system: KP^sh cells; experiment: αKG/succinate ratio in KP^sh PDAC cells (metabolite profiling); assay type: cell-based, mouse; conditions: KP^sh cells on dox; 3 μM etoposide or 25 nM trametinib, 48 or 96 hours
Experimental: Cell Lines and Cell Culture Treatments. KP^sh-1-3 cells were derived from PDAC that developed in three separate Pdx1-Cre; LSL-KrasG12D; Col1a1-TRE-shp53-shRenilla; Rosa26-CAGs-LSL-rtTA-IRES-mKate2 mice generated by blastocyst injection and maintained on doxycycline (dox) chow (625 mg/kg, Harlan Laboratories) 5 days from birth until sacrifice. […] KP^floxRIK cells were derived from PDAC that developed in a p48-Cre; LSL-KrasG12D; p53^flox/+; Rosa26-CAGs-LSL-rtTA-IRES-mKate2 mouse generated by blastocyst injection. KP^R172HRIK cells were derived from tumors that developed in a p48Cre^ER; LSL-KrasG12D; LSL-p53^R172H/+; Rosa26-CAGs-LSL-rtTA-IRES-mKate2 mouse generated by blastocyst injection. […]
Metabolite Profiling. […] Samples were analyzed using an Agilent 7890A GC coupled to Agilent 5975C mass selective detector. […] Peaks representing compounds of interest were extracted and integrated using MassHunter software (Agilent Technologies) and peak area was normalized to the internal standard (d5-2HG) peak area and protein content of duplicate samples as determined by BCA protein assay (Thermo Scientific). Ions used for quantification of metabolite levels are as follows: d5-2HG m/z 354; citrate, m/z 465; αKG, m/z 304; aspartate, m/z 334; fumarate, m/z 245; malate, m/z 335 and succinate, m/z 247. […]

[3] = system: Nras^G12D; Mll-Af9 murine AML cells; experiment: aKG:succinate ratio in AML cells by GC/MS; assay type: cell-based; conditions: FIG. 20F
[4] = target: T1, OGDH (Homo sapiens, UniProt Q02218); experiment: OGDH enzyme inhibition in vitro; assay type: biochemical
T1 sequence (Q02218 41-1023): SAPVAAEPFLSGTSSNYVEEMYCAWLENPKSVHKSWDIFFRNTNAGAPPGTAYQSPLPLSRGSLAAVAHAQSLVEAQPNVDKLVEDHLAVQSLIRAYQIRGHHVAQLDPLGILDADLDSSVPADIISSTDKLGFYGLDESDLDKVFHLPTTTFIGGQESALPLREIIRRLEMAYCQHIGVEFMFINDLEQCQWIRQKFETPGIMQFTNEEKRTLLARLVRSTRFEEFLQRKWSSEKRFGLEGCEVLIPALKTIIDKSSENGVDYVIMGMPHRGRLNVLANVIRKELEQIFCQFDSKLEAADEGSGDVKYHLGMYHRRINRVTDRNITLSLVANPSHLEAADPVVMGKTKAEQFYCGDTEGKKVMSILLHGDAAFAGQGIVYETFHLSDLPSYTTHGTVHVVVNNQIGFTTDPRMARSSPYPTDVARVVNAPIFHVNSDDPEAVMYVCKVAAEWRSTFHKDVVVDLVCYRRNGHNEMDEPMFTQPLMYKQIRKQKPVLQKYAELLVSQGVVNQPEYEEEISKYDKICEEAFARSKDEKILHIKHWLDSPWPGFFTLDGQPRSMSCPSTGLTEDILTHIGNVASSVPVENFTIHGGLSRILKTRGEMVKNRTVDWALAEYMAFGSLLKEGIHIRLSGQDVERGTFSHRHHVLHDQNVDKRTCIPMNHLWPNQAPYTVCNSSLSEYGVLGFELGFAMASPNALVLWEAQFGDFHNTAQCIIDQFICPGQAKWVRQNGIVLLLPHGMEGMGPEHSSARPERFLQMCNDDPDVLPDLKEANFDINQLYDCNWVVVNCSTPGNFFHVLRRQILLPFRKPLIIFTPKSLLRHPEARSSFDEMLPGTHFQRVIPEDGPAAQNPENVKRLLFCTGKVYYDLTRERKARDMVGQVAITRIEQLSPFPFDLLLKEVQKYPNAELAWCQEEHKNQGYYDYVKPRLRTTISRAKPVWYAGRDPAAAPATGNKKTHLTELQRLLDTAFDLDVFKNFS
Source text: It is worth noting that there are ongoing clinical trials in hematologic malignancies including AML for a compound designated CPI-613. This drug is an analog of lipoate, a catalytic co-factor and modulator of several metabolic enzymes, including the TCA enzymes pyruvate dehydrogenase (PDH) and OGDH. However, the compound is thought to elicit its anti-cancer effects through an indirect mechanism and may also target additional lipoate-dependent enzymes involved in amino acid catabolism. […] Instead development of specific inhibitors of OGDH was initiated for the purpose of exploiting a known metabolic phenotype mimicking the wt-p53 tumor suppressive effect. These concepts and compounds will be tested in our models of CK AML.

[5] = system: KP^sh cells; experiment: RNA-Seq / GSEA / qRT-PCR gene expression in KP^sh cells; assay type: cell-based, mouse
Experimental: qRT-PCR. Total RNA was extracted in triplicate wells from indicated conditions using the RNAeasy Mini Kit (Qiagen) according to manufacturer protocols. cDNA was synthesized from 1 μg of RNA (AffinityScript QPCR cDNA synthesis kit, Agilent) and QPCR amplification performed with SYBR green (Perfecta SYBR green fast mix, QuantaBio) using the following primer pairs on a ViiA 7 Real-Time PCR System (Life technologies). 36B4 was utilized as endogenous control.
RNA-Seq. Total RNA was isolated from duplicate wells of indicated conditions. RNA integrity and concentration were assessed using a BioAnalyzer (Agilent). RNA sequencing libraries were generated using Illumina mRNA TruSeq kit with dual index barcoding. […] Approximately 8 million paired-end 76 bp reads were sequenced per replicate on a HiSeq 2500 instrument on RAPID mode. […] Genome wide transcript counting was performed by HTSeq or featureCounts to generate FPKM matrix. […] Differential expression analysis was performed with DESeq2 package in R^50. Genes with a real adjusted p value were used for downstream analyses.
Gene Set Enrichment Analysis. Gene set enrichment analysis (GSEA) was performed using ranked lists. […] GSEAPreranked version 4 was used with default parameters and data were exported and graphed in GraphPad Prism version 7.

[6] = system: KP^sh cells; experiment: ATAC-Seq chromatin accessibility in KP^sh cells; assay type: cell-based, mouse; conditions: KP^sh cells with dox, cell-permeable αKG
Experimental: Epigenomic Analysis. 1×10^6 KP^sh cells were washed with PBS and plated on and off dox 8 days (−D8) before collecting cells for ATAC-Seq analysis. Cells maintained on dox and off dox were passaged every 48 h. Three days prior to harvest, dimethyl-α-ketoglutarate (DM-αKG) was added to cells grown on dox, while DMSO was added to cells maintained on dox and cells maintained off dox. All cell groups (On dox, DMSO; On dox, DM-αKG; Off dox, DMSO) were split into 6-well plates in duplicate in fresh media containing dox, DM-αKG, and DMSO as indicated two days prior to harvest. This medium was refreshed 24 h before collection. […] Barcoded libraries were pooled (2-4 samples/lane) and run on an Illumina HiSeq 2500 sequencer using 50 bp paired-end reads.
For data analysis, quality and adapter filtering was applied to raw reads using ‘trim_galore’ before aligning to mouse assembly mm9 with bowtie2 using the default parameters. The Picard tool MarkDuplicates was used to remove reads with the same start site and orientation. The BEDTools suite was used to create read density profiles. Enriched regions were discovered using MACS2 and scored against matched input libraries (fold change >2 and FDR-adjusted p-value <0.1). […] ChIP-seq data were processed in the same way as ATAC-seq data, except read density profiles for ChIP included a read extension equivalent to the average library fragment size. […]

[7] = system: dox-treated KP^sh cells; experiment: 5hmC flow cytometry in KP^sh cells; assay type: cell-based, mouse; conditions: KP^sh-2 cells, 4 mM DM-αKG for 72 h
Experimental: (§1) BrdU, Annexin-V, 5hmC Flow Cytometry Assays. BrdU (BD Pharmigen) and Annexin V (BDPharmigen) analysis was performed in triplicate in cells plated in 6-well dishes under indicated conditions via manufacturers' protocols. 5hmC flow was performed in triplicate in cells plated in 6-well dishes. Briefly, adherent cells were washed with PBS, collected by trypsinization, and fixed on ice for 15 minutes in fixation/permeabilization solution (BD Cat #554714). The cells were then washed with 1× perm/wash buffer (BD Cat #554714) supplemented with 0.1% Triton X, treated with 1× perm/wash buffer supplemented with 0.5% Triton X and 0.5% Nonidet P-40 substitute for 30 minutes. Then, the cells were washed with 1× perm/wash buffer supplemented with 0.1% Triton X, incubated overnight at 4° C. with rabbit anti-5hmC antibody diluted 1:100 in 1× perm/wash buffer supplemented with 0.1% Triton X, washed with 1× perm/wash buffer supplemented with 0.1% Triton X, and incubated for 1 hour at room temperature with goat anti-rabbit Alexa Fluor 700 diluted 1:200 in 1× perm/wash buffer supplemented with 0.1% Triton X. The cells were then washed with 1× perm/wash buffer supplemented with 0.1% Triton X, resuspended in 1× perm/wash buffer, and analyzed.

[8] = system: p53 mutant human PDAC cells; experiment: 5hmC flow cytometry in human PDAC cells; assay type: cell-based; conditions: 8988 and Panel cells, 4 mM DM-αKG for 72 h
Experimental: as §1

COc1cc([C@@H]2c3cc4c(cc3[C@@H](O[C@@H]3O[C@@H]5CO[C@@H](C)O[C@H]5[C@H](O)[C@H]3O)[C@H]3COC(=O)[C@H]23)OCO4)cc(OC)c1O [etoposide]
cell cycle arrest and senescence [1]: triggered cell cycle arrest and senescence | αKG/succinate ratio [2]: neither altered the αKG/succinate ratio

O=C(O)CCCCC(CCSCc1ccccc1)SCc1ccccc1 (centres unmarked) [CPI-613]
cellular ratio of αKG:succinate [3]: not | specificity for OGDH [4]: lacks specificity for OGDH | concentration at which OGDH is inhibited ([4]; in vitro): > 200 µM

CC(=O)[O-].[Na+] [acetate, sodium acetate]
induction of pre-malignant associated genes co-regulated by p53 and αKG (qRT-PCR) ([5]; 4 mM, 72 h): not

COC(=O)CCC(=O)C(=O)OC [cell-permeable αKG, dimethyl-α-ketoglutarate]
chromatin accessibility (ATAC-Seq) [6]: global increase in chromatin accessibility | expression of genes enriched in malignant PDAC cells (GSEA) [5]: concomitant downregulation of genes enriched in malignant PDAC cells | expression of genes of premalignant PanIN lesions (GSEA) [5]: robust increase in expression of genes selectively expressed in cells derived from premalignant PanIN lesions | cellular 5hmC [7]: induced cellular 5hmC | cellular 5hmC [8]: induced cellular 5hmC
